Like-named read-outs stand apart in the source and are kept apart here. Positions of bridges follow the written chain, without caps; N, C: chain ends. Residues, ends and D or L forms follow the SMILES beside them.
Molecular target: hNav1.7 (Homo sapiens, UniProt Q15858)
Experiment: cell-based
Assay type: cell-based
[1] = IonWorks Quattro, Use, read-out: IWQ Use Nav1.7

hNav1.7, sequence (Q15858 whole entry, looked up): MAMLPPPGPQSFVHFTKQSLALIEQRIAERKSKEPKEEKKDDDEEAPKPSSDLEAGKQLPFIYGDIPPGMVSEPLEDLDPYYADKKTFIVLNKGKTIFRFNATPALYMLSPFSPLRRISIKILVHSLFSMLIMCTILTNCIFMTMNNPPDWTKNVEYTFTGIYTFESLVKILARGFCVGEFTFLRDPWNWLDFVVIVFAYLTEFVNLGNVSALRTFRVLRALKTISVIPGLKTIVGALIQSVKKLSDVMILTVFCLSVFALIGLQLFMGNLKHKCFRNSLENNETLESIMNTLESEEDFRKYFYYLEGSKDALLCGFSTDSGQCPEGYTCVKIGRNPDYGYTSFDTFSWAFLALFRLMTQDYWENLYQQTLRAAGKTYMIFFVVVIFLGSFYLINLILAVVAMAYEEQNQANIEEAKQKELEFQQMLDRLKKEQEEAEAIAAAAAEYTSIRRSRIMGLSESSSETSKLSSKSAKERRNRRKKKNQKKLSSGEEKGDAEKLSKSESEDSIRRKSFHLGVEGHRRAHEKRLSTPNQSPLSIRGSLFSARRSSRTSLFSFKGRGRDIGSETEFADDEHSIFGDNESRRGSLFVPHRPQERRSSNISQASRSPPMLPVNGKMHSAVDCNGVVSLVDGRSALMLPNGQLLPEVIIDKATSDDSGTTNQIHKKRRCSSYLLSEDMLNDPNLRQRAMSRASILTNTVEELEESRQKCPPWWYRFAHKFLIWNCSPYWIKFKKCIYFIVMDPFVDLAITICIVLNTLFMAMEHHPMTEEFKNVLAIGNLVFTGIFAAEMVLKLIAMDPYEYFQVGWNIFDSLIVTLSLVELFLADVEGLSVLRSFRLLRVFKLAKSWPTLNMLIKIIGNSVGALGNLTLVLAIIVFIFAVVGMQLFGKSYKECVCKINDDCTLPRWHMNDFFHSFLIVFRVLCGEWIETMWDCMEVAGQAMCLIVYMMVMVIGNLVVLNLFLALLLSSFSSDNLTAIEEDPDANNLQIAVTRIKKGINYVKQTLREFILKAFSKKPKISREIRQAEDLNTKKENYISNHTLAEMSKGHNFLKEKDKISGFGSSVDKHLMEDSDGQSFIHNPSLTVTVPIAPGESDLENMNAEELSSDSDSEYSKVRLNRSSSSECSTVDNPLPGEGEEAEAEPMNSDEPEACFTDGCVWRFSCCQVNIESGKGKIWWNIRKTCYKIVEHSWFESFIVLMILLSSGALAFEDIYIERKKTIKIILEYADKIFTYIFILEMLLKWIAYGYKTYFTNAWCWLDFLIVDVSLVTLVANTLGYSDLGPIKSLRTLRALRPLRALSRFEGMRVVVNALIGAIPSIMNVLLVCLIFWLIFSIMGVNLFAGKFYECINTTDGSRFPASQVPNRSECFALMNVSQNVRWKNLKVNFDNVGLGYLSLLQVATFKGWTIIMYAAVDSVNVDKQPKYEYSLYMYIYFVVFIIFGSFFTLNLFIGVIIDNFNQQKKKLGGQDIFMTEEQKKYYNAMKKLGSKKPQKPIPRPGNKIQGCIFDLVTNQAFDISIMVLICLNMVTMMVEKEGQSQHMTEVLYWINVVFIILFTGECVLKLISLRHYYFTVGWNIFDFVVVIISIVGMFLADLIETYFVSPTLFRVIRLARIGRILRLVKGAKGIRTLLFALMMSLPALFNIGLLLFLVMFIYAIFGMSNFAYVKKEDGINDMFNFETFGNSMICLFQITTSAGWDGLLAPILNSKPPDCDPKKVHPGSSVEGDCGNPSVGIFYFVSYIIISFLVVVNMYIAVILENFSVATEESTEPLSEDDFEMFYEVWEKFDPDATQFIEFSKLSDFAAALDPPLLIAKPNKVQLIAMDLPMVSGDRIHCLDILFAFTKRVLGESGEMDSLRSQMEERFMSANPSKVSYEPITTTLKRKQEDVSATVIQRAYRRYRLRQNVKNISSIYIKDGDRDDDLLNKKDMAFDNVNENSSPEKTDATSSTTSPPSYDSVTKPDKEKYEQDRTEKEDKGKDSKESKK

**Q.** Which IC50 (read-out: IWQ Use Nav1.7) does the source give for CC[C@H](C)[C@@H]1NC(=O)[C@@H]2CSSC[C@@H]3NC(=O)[C@H](C(C)C)NC(=O)[C@H](CC(C)C)NC(=O)[C@H](CC(N)=O)NC(=O)[C@@H]4CCCN4C(=O)[C@H](CCCNC(=N)N)NC(=O)[C@H](CSSC[C@H](NC(=O)[C@@H](N)CC(=O)O)C(=O)N[C@@H](CC(C)C)C(=O)NCC(=O)N[C@@H](Cc4ccccc4)C(=O)N[C@@H](CCSC)C(=O)N[C@@H](CCCNC(=N)N)C(=O)N[C@@H](CCCCN)C(=O)N2)NC(=O)[C@H](CSSC[C@@H](C(=O)N[C@@H](CCCCN)C(=O)N[C@@H](Cc2ccc(O)cc2)C(=O)N[C@H](C(=O)N[C@@H](Cc2ccccc2)C(N)=O)C(C)C)NC(=O)[C@H](Cc2c[nH]c4ccccc24)NC(=O)[C@H](CCCCN)NC(=O)[C@H](Cc2c[nH]cn2)NC(=O)[C@H]([C@@H](C)O)NC(=O)[C@H](CCCNC(=N)N)NC(=O)[C@H](CO)NC3=O)NC(=O)[C@H](CCCCN)NC(=O)[C@H](CC(=O)O)NC(=O)[C@H](CC(N)=O)NC(=O)[C@H](CCCCN)NC(=O)[C@@H]2CCCN2C1=O [compound 42] (H-DCLGFMRKCIPKNDKCCRPNLVCSRTHKWCKYVF-NH2; disulfide 2-17, 9-23, 16-30) here?
**A.** Its IC50 is 120 nM.

**Q.** Which IC50 [1] does the source give for CC[C@H](C)[C@@H]1NC(=O)[C@@H]2CSSC[C@@H]3NC(=O)[C@H](CCC(=O)O)NC(=O)[C@H](CC(C)C)NC(=O)[C@H](CC(N)=O)NC(=O)[C@@H]4CCCN4C(=O)[C@H](CCCNC(=N)N)NC(=O)[C@H](CSSC[C@H](NC(=O)[C@@H](N)CC(=O)O)C(=O)N[C@@H](CC(C)C)C(=O)NCC(=O)N[C@@H](Cc4ccccc4)C(=O)N[C@@H](CCSC)C(=O)N[C@@H](CCCNC(=N)N)C(=O)N[C@@H](CCCCN)C(=O)N2)NC(=O)[C@H](CSSC[C@@H](C(=O)N[C@@H](CCCCN)C(=O)N[C@@H](Cc2ccc(O)cc2)C(=O)N[C@H](C(=O)N[C@@H](Cc2ccccc2)C(N)=O)C(C)C)NC(=O)[C@H](Cc2c[nH]c4ccccc24)NC(=O)[C@H](CCCCN)NC(=O)[C@H](Cc2c[nH]cn2)NC(=O)[C@H]([C@@H](C)O)NC(=O)[C@H](CCCNC(=N)N)NC(=O)[C@H](CO)NC3=O)NC(=O)[C@H](CCCCN)NC(=O)[C@H](CC(=O)O)NC(=O)[C@H](CC(N)=O)NC(=O)[C@H](CC(=O)O)NC(=O)[C@@H]2CCCN2C1=O [compound 102] (H-DCLGFMRKCIPDNDKCCRPNLECSRTHKWCKYVF-NH2; disulfide 2-17, 9-23, 16-30) here?
**A.** The IC50 was 1400 nM.

**Q.** CC[C@H](C)[C@@H]1NC(=O)[C@@H]2CSSC[C@@H]3NC(=O)[C@H](C(C)C)NC(=O)[C@H](CC(C)C)NC(=O)[C@H](CC(N)=O)NC(=O)[C@@H]4CCCN4C(=O)[C@H](CCCNC(=N)N)NC(=O)[C@H](CSSC[C@H](NC(=O)[C@@H](N)CCCNC(=N)N)C(=O)N[C@@H](CC(C)C)C(=O)NCC(=O)N[C@@H](Cc4ccccc4)C(=O)N[C@@H](CCSC)C(=O)N[C@@H](CCCNC(=N)N)C(=O)N[C@@H](CCCCN)C(=O)N2)NC(=O)[C@H](CSSC[C@@H](C(=O)N[C@@H](CCCCN)C(=O)N[C@@H](Cc2ccc(O)cc2)C(=O)N[C@H](C(=O)N[C@@H](Cc2ccccc2)C(N)=O)C(C)C)NC(=O)[C@H](Cc2c[nH]c4ccccc24)NC(=O)[C@H](CCCCN)NC(=O)[C@H](Cc2c[nH]cn2)NC(=O)[C@H]([C@@H](C)O)NC(=O)[C@H](CCCNC(=N)N)NC(=O)[C@H](CO)NC3=O)NC(=O)[C@H](CCCCN)NC(=O)[C@H](CC(=O)O)NC(=O)[C@H](CC(N)=O)NC(=O)[C@H](CC(=O)O)NC(=O)[C@@H]2CCCN2C1=O [SEQ ID NO: 62] (H-RCLGFMRKCIPDNDKCCRPNLVCSRTHKWCKYVF-NH2; disulfide 2-17, 9-23, 16-30) was tested. Which IC50 (read-out: IWQ Use Nav1.7) did it give?
**A.** Its IC50 is 110 nM.

**Q.** Which IC50 (IonWorks Quattro, use-dependent, […], read-out: IWQ Use Nav1.7 (μm)) does the source give for CC[C@H](C)[C@@H]1NC(=O)[C@@H]2CSSC[C@@H]3NC(=O)[C@H](C(C)C)NC(=O)[C@H](CC(C)C)NC(=O)[C@H](CC(N)=O)NC(=O)[C@@H]4CCCN4C(=O)[C@H](CCCNC(=N)N)NC(=O)[C@H](CSSC[C@H](NC(=O)[C@@H](N)CC(=O)O)C(=O)N[C@@H](CC(C)C)C(=O)NCC(=O)N[C@@H](Cc4ccccc4)C(=O)N[C@@H](CCSC)C(=O)N[C@@H](CCCNC(=N)N)C(=O)N[C@@H](CCCCN)C(=O)N2)NC(=O)[C@H](CSSC[C@@H](C(=O)N[C@@H](CCCCN)C(=O)N[C@@H](Cc2ccc(O)cc2)C(N)=O)NC(=O)[C@H](Cc2c[nH]c4ccccc24)NC(=O)[C@H](CCCCN)NC(=O)[C@H](Cc2c[nH]cn2)NC(=O)[C@H]([C@@H](C)O)NC(=O)[C@H](CCCNC(=N)N)NC(=O)[C@H](CO)NC3=O)NC(=O)[C@H](CCCCN)NC(=O)[C@H](CC(=O)O)NC(=O)[C@H](CC(N)=O)NC(=O)[C@H](CC(=O)O)NC(=O)[C@@H]2CCCN2C1=O [compound 416] (H-DCLGFMRKCIPDNDKCCRPNLVCSRTHKWCKY-NH2; disulfide 2-17, 9-23, 16-30) here?
**A.** The IC50 was 1500 nM.

**Q.** For CC[C@H](C)[C@@H]1NC(=O)[C@@H]2CSSC[C@@H]3NC(=O)[C@H](C(C)C)NC(=O)[C@H](CC(C)C)NC(=O)[C@H](CC(N)=O)NC(=O)[C@@H]4CCCN4C(=O)[C@H](CCCNC(=N)N)NC(=O)[C@H](CSSC[C@H](NC(=O)[C@@H](N)CC(=O)O)C(=O)N[C@@H](CC(C)C)C(=O)NCC(=O)N[C@@H](Cc4ccccc4)C(=O)N[C@@H](CCSC)C(=O)N[C@@H](C)C(=O)N[C@@H](CCCCN)C(=O)N2)NC(=O)[C@H](CSSC[C@@H](C(=O)N[C@@H](CCCCN)C(=O)N[C@@H](Cc2ccc(O)cc2)C(=O)N[C@H](C(=O)N[C@@H](Cc2ccccc2)C(N)=O)C(C)C)NC(=O)[C@H](Cc2c[nH]c4ccccc24)NC(=O)[C@H](CCCCN)NC(=O)[C@H](Cc2c[nH]cn2)NC(=O)[C@H]([C@@H](C)O)NC(=O)[C@H](CCCNC(=N)N)NC(=O)[C@H](CO)NC3=O)NC(=O)[C@H](CCCCN)NC(=O)[C@H](CC(=O)O)NC(=O)[C@H](CC(N)=O)NC(=O)[C@H](CC(=O)O)NC(=O)[C@@H]2CCCN2C1=O [[Ala7]GpTx-1(1-34)] (H-DCLGFMAKCIPDNDKCCRPNLVCSRTHKWCKYVF-NH2; disulfide 2-17, 9-23, 16-30), which IC50 (IonWorks Quattro, use-dependent block, hNav1.7, read-out: IWQ Use Nav1.7) is on record?
**A.** The IC50 was 940 nM.

**Q.** Which IC50 [1] does the source give for CSCC[C@@H]1NC(=O)[C@H](Cc2ccccc2)NC(=O)CNC(=O)[C@H](CC(C)C)NC(=O)[C@@H](NC(=O)[C@@H](N)CC(=O)O)CSSC[C@@H]2NC(=O)[C@@H]3CSSC[C@@H](C(=O)N[C@@H](CCCCN)C(=O)N[C@@H](Cc4ccc(O)cc4)C(=O)N[C@H](C(=O)N[C@@H](Cc4ccccc4)C(N)=O)C(C)C)NC(=O)[C@H](Cc4c[nH]c5ccccc45)NC(=O)[C@H](CCCCN)NC(=O)[C@H](Cc4c[nH]cn4)NC(=O)[C@H]([C@@H](C)O)NC(=O)[C@H](CCCNC(=N)N)NC(=O)[C@H](CO)NC(=O)[C@H](CSSC[C@H](NC(=O)[C@H](CCCCN)NC(=O)[C@H](CCCNC(=N)N)NC1=O)C(=O)N[C@@H](C(C)C)C(=O)N1CCC[C@H]1C(=O)N[C@@H](CC(=O)O)C(=O)N[C@@H](CC(N)=O)C(=O)N[C@@H](CC(=O)O)C(=O)N[C@@H](CCCCN)C(=O)N3)NC(=O)[C@H](C(C)C)NC(=O)[C@H](CC(C)C)NC(=O)[C@H](CC(N)=O)NC(=O)[C@@H]1CCCN1C(=O)[C@H](CCCNC(=N)N)NC2=O [compound 301] (H-DCLGFMRKCVPDNDKCCRPNLVCSRTHKWCKYVF-NH2; disulfide 2-17, 9-23, 16-30) here?
**A.** Its IC50 is 100 nM.

— patent publication US9340590B2 (priority 2011, dated 2016)
